These are literature values, as cited in patent US20230303712A1, “METHODS OF TREATING GLIOBLASTOMA” (Ramot at Tel-Aviv University Ltd., priority 2020, published 2023).

One series concerns the target T1, L-Selectin (Homo sapiens, UniProt P14151).
T1 sequence (P14151 39-372): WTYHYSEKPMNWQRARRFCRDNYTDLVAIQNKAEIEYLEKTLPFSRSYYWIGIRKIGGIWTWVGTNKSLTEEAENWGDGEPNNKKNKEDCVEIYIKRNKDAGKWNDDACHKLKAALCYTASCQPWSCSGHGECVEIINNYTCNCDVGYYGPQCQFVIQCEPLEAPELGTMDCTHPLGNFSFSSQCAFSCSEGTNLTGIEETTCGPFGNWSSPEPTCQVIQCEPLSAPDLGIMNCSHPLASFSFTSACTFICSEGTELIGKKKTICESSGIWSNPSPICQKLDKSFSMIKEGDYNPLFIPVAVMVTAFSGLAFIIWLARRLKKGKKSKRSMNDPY
The note with it: in humans in vitro; cited from earlier work.

The target of another series is T2, P-Selectin (Homo sapiens, UniProt P16109).
T2 sequence (P16109 42-830): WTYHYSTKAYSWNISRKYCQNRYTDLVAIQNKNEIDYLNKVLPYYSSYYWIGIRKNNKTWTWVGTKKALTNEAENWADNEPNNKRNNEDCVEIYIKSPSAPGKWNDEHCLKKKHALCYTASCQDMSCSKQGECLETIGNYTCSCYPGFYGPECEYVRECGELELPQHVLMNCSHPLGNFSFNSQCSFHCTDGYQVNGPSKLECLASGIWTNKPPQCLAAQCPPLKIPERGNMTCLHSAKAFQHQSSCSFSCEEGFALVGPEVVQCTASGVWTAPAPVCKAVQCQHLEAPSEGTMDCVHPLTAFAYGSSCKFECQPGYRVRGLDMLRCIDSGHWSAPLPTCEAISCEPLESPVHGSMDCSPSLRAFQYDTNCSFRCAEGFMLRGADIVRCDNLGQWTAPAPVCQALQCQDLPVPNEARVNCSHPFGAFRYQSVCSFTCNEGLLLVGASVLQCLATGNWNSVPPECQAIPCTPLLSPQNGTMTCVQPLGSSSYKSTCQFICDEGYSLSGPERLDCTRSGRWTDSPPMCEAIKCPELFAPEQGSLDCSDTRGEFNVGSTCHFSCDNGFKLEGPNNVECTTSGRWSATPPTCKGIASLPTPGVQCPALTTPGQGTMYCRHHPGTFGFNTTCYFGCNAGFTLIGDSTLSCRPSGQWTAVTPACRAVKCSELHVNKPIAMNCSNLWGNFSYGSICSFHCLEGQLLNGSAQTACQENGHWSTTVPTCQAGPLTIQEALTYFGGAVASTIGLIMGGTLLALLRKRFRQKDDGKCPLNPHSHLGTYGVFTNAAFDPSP
The note with it: in humans in vitro; cited from earlier work.

For series [1] the following is noted: different animal models; cited from earlier work.
In another series the target is T3, E-Selectin (Homo sapiens, UniProt P16581).
T3 sequence (P16581 22-610): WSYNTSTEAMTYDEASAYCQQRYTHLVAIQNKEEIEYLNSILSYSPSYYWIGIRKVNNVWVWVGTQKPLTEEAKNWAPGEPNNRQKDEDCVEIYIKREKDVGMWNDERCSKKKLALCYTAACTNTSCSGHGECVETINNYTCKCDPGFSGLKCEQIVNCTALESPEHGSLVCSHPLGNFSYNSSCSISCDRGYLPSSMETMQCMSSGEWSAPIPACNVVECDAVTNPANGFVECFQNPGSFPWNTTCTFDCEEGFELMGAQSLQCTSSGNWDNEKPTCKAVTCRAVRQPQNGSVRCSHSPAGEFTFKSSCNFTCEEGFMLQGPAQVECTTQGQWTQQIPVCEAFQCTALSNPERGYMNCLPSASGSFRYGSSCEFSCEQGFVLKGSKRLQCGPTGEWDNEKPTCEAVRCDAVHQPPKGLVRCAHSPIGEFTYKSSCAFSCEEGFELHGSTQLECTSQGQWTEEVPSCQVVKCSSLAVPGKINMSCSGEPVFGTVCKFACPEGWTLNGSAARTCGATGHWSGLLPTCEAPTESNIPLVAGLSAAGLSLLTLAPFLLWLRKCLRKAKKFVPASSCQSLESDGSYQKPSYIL
The settings on record: in humans in vitro; cited from earlier work.

For series [2] the following is noted: administered systemically; cited from earlier work.

Turning to `O=C(O)Cc1cccc(-c2cc(CCCCCCc3ccc(OC4O[C@H](CO)C(O)[C@H](O)[C@@H]4O)c(-c4cccc(CC(=O)O)c4)c3)ccc2OC2O[C@H](CO)C(O)[C@H](O)[C@@H]2O)c1` (stereo partly drawn) [Bimosiamose (TBC1269)], the L-selectin-dependent adhesion result at L-Selectin is on record as “inhibit”. Besides, at P-Selectin, the P-selectin-dependent adhesion result is “inhibit”. Besides, the anti-inflammatory effects entry in series [1] is given as “anti-inflammatory effects”. The E-selectin-dependent adhesion result on E-Selectin is “inhibit”.
Take “inclacumab: monoclonal antibody directed towards P-selectin”: the tolerability in patients result in series [2] is “well tolerated”.

B1: crizanlizumab: Humanized monoclonal anti-P-selectin antibody (antibody, chains of the INN, looked up, V domains shown)
VH: QVQLVQSGAEVKKPGASVKVSCKVSGYTFTSYDINWVRQAPGKGLEWMGWIYPGDGSIKYNEKFKGRVTMTVDKSTDTAYMELSSLRSEDTAVYYCARRGEYGNYEGAMDYWGQGTLVTVSS
VL: DIQMTQSPSSLSASVGDRVTITCKASQSVDYDGHSYMNWYQQKPGKAPKLLIYAASNLESGVPSRFSGSGSGTDFTLTISSLQPEDFATYYCQQSDENPLTFGGGTKVEIK
On to B1, for which the tolerability in patients entry in series [2] is reported as “well tolerated”.
